Measured values reported in patent EP4467141A1, “PYRAZOLO-QUINOLINES AS SELECTIVE INHIBITORS OF GENOTOXIC STRESS-INDUCED IKK/NF- KB PATHWAYS FOR CANCER THERAPY” (Max-Delbrück-Centrum für Molekulare Medizin in der …, priority 2023, dated 2024).
Read-outs that look alike come from different tables or passages of the source.

How the values were obtained:
Test in all cases: Kinase panel study
Type in all cases: biochemical
PRKCN (PKD3) = biological target: T1, PRKCN (PKD3) (Homo sapiens, UniProt O94806)
T1 construct: purchased Thermo Fisher Scientific
T1 sequence (O94806 1-890): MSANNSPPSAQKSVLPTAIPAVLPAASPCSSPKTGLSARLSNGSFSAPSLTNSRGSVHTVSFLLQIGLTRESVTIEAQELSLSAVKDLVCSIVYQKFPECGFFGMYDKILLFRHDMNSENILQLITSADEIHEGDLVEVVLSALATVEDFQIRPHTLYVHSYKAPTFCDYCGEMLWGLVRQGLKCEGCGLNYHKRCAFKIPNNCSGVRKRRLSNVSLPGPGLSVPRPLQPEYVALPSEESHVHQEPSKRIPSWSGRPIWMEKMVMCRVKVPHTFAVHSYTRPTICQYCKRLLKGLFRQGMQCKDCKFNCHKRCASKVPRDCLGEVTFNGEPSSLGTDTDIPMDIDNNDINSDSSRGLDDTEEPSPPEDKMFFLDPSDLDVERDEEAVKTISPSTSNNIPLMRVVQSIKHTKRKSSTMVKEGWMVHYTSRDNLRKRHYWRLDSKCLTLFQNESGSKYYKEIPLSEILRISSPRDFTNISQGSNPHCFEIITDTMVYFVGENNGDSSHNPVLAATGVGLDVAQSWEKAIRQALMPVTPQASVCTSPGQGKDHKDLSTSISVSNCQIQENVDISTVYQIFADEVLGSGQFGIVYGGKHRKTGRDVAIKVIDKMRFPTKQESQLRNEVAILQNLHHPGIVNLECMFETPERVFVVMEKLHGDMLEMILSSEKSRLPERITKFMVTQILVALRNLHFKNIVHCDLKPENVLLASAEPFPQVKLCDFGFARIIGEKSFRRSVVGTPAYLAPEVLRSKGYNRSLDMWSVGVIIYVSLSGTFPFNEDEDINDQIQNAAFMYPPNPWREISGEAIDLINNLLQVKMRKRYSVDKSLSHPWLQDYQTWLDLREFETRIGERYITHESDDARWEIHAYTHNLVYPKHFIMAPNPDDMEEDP
In short: (§1)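 Percent inhibition of each kinase by the test compound, given at either 1 µM or 10 µM, came from a contracted panel run by ZLyte or Adapta protocol.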

[1] = biological target: T2, PIK3CA/PIK3R1 (p11 0 alpha/p85 alpha) (Homo sapiens, UniProt P42336)
T2 construct: purchased Thermo Fisher Scientific
In short: as §1

BTK = biological target: T3, BTK (Homo sapiens, UniProt Q06187)
T3 construct: purchased Thermo Fisher Scientific
In short: as §1

PIP5K1B = biological target: T4, PIP5K1B (Homo sapiens, UniProt O14986)
T4 construct: purchased Thermo Fisher Scientific
In short: as §1

PI4K2B (PI4K2 beta) = biological target: T5, PI4K2B (PI4K2 beta) (Homo sapiens, UniProt Q8TCG2)
T5 construct: purchased Thermo Fisher Scientific
In short: as §1

ALK = biological target: T6, ALK (Homo sapiens, UniProt Q9UM73)
T6 construct: purchased Thermo Fisher Scientific
In short: as §1

PI4K2A (PI4K2 alpha) = biological target: T7, PI4K2A (PI4K2 alpha) (Homo sapiens, UniProt Q9BTU6)
T7 construct: purchased Thermo Fisher Scientific
In short: as §1

MINK1 = biological target: T8, MINK1 (Homo sapiens, UniProt Q8N4C8)
T8 construct: purchased Thermo Fisher Scientific
In short: as §1

PI4KB (PI4K beta) = biological target: T9, PI4KB (PI4K beta) (Homo sapiens, UniProt Q9UBF8)
T9 construct: purchased Thermo Fisher Scientific
In short: as §1

AKT2 (PKB beta) = biological target: T10, AKT2 (PKB beta) (Homo sapiens, UniProt P31751)
T10 construct: purchased Thermo Fisher Scientific
In short: as §1

FRAP1 (mTOR) = biological target: T11, FRAP1 (mTOR) (Homo sapiens, UniProt P42345)
T11 construct: purchased Thermo Fisher Scientific
In short: (§2)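 Readout is percentage kinase inhibition. Testing used 1 µM or 10 µM compound in externally run ZLyte/Adapta in vitro assays, and IC50 values were derived within the same panel.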

DNA-PK = biological target: T12, DNA-PK (Homo sapiens, UniProt P78527)
T12 construct: purchased Thermo Fisher Scientific
In short: as §2

PIP5K1A = biological target: T13, PIP5K1A (Homo sapiens, UniProt Q99755)
T13 construct: purchased Thermo Fisher Scientific
In short: as §1

EGFR (ErbB1) = biological target: T14, EGFR (ErbB1) (Homo sapiens, UniProt P00533)
T14 construct: purchased Thermo Fisher Scientific
In short: as §1

DYRK1B = biological target: T15, DYRK1B (Homo sapiens, UniProt Q9Y463)
T15 construct: purchased Thermo Fisher Scientific
In short: as §1

IRAK1 = biological target: T16, IRAK1 (Homo sapiens, UniProt P51617)
T16 construct: purchased Thermo Fisher Scientific
In short: as §1

[2] = PRKCN (PKD3), compound at 10µM, read-out: % of Inhibition
[3] = PIK3CA/PIK3R1, compound at 10µM, read-out: % of Inhibition
[4] = BTK, compound at 10µM, read-out: % of Inhibition
[5] = PIP5K1B, compound at 10µM, read-out: % of Inhibition
[6] = PI4K2B (PI4K2 beta), compound at 10µM, read-out: % of Inhibition
[7] = ALK, compound at 10µM, read-out: % of Inhibition
[8] = PI4K2A (PI4K2 alpha), compound at 10µM, read-out: % of Inhibition
[9] = MINK1, compound at 10µM, read-out: % of Inhibition
[10] = PI4KB (PI4K beta), compound at 10µM, read-out: % of Inhibition
[11] = AKT2 (PKB beta), compound at 10µM, read-out: % of Inhibition
[12] = FRAP1 (mTOR), compound at 10µM, read-out: % of Inhibition
[13] = DNA-PK, compound at 10µM, read-out: % of Inhibition
[14] = PIP5K1A, compound at 10µM, read-out: % of Inhibition
[15] = EGFR (ErbB1), compound at 10µM, read-out: % of Inhibition
[16] = DYRK1B, compound at 10µM, read-out: % of Inhibition
[17] = IRAK1, compound at 10µM, read-out: % of Inhibition
[18] = 1000nM, read-out: Percentage of inhibition
[19] = 10000nM, read-out: Percentage of inhibition

T7 sequence (Q9BTU6 whole entry): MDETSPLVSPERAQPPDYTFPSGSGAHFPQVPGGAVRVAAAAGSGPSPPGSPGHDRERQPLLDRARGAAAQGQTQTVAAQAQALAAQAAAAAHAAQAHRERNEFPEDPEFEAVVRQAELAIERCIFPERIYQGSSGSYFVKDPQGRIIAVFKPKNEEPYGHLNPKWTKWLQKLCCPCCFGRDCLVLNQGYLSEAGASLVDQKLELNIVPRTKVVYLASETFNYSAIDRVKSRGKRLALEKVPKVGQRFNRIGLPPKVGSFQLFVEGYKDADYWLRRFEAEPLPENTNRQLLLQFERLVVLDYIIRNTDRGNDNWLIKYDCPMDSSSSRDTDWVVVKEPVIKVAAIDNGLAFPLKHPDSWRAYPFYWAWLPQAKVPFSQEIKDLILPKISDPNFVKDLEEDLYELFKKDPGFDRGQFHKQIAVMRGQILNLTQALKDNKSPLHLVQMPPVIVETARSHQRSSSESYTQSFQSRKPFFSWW
T5 sequence (Q8TCG2 whole entry): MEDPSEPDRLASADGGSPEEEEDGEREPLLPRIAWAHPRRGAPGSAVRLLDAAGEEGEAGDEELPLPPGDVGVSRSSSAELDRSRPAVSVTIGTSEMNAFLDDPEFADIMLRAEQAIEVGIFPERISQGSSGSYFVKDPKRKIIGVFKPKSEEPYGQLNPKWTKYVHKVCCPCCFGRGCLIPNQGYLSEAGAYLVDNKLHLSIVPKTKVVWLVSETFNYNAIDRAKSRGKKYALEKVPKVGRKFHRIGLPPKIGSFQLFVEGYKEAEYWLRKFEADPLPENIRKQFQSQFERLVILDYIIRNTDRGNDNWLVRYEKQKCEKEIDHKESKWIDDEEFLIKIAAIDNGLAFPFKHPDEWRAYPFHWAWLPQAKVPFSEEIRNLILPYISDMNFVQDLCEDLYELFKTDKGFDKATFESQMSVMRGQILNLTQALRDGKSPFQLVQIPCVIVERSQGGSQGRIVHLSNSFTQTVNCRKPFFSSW
T14 sequence (P00533 25-1210): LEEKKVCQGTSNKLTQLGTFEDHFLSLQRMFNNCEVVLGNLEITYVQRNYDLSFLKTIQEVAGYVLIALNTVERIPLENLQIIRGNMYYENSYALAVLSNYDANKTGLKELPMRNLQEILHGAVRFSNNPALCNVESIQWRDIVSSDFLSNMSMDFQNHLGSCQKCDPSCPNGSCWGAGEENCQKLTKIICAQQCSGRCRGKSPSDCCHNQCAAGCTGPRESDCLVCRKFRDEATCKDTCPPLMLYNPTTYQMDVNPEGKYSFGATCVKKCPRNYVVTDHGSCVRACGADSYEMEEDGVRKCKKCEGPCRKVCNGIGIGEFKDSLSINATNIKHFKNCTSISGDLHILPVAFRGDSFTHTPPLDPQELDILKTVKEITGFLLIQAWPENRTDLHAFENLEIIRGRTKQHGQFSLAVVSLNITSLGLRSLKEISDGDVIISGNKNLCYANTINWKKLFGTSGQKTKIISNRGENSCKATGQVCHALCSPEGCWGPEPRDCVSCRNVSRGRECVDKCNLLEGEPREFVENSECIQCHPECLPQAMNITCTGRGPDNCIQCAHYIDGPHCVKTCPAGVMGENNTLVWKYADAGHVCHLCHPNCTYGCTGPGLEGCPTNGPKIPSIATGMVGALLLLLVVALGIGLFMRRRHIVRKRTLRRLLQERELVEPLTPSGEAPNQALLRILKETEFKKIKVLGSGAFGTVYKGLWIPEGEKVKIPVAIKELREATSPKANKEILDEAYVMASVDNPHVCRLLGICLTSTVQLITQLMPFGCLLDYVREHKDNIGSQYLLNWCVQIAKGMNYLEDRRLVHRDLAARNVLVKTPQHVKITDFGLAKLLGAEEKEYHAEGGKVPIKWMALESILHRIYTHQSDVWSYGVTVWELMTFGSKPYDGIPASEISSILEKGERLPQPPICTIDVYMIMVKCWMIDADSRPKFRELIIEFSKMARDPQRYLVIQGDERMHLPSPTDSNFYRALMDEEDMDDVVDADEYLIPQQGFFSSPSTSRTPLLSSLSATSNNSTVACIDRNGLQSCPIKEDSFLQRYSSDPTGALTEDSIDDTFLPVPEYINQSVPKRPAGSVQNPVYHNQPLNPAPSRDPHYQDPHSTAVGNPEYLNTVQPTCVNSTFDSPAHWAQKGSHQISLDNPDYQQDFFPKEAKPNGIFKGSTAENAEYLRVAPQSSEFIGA
T13 sequence (Q99755 whole entry): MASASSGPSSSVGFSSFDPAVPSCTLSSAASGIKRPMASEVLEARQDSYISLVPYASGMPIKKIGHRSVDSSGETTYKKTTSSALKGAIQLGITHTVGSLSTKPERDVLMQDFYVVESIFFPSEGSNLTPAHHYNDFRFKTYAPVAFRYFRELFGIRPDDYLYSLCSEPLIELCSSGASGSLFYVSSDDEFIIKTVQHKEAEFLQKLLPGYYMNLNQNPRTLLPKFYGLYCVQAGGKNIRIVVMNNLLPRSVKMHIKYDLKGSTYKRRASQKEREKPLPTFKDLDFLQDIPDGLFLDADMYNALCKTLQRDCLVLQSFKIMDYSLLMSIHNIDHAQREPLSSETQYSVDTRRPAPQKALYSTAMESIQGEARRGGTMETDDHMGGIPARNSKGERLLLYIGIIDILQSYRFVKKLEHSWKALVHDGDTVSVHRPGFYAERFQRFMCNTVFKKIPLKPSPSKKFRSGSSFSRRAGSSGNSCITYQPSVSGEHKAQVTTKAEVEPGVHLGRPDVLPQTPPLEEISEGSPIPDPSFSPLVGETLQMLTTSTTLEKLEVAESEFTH
T9 sequence (Q9UBF8 whole entry): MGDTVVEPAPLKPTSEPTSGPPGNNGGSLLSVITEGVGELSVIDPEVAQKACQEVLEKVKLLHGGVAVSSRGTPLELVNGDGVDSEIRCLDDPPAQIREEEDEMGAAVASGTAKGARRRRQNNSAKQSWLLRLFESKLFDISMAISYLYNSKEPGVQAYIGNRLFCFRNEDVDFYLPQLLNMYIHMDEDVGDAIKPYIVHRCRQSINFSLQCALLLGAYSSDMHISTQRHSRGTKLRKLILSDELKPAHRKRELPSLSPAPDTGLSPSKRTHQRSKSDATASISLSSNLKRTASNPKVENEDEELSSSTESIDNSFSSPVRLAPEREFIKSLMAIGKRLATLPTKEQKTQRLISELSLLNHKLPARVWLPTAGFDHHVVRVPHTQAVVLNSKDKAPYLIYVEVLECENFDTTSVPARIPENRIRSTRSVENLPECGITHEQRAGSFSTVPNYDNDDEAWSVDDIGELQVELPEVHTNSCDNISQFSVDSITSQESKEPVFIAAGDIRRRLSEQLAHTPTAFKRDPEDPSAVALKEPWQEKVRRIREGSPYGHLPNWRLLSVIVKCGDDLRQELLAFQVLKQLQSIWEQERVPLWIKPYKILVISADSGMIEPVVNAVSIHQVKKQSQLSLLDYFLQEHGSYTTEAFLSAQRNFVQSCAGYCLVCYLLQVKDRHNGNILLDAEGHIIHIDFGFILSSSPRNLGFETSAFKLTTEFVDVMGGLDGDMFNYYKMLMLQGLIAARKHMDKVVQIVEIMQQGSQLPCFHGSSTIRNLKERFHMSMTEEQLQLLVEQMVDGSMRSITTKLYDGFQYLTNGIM
T4 sequence (O14986 whole entry): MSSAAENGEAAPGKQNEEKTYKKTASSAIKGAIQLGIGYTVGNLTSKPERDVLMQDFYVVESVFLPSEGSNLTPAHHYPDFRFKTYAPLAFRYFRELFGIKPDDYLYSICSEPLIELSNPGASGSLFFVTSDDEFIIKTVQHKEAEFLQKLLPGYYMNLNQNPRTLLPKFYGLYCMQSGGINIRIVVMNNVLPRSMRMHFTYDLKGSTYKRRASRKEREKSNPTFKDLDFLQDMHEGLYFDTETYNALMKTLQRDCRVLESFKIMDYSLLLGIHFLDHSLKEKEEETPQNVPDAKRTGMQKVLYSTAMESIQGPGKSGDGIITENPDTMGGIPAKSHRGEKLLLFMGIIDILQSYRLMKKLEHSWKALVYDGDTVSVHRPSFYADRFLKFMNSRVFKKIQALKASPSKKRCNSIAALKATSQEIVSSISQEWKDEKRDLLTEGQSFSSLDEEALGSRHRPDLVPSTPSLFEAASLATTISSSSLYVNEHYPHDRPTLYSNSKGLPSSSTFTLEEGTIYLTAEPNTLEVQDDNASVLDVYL
T10 sequence (P31751 whole entry): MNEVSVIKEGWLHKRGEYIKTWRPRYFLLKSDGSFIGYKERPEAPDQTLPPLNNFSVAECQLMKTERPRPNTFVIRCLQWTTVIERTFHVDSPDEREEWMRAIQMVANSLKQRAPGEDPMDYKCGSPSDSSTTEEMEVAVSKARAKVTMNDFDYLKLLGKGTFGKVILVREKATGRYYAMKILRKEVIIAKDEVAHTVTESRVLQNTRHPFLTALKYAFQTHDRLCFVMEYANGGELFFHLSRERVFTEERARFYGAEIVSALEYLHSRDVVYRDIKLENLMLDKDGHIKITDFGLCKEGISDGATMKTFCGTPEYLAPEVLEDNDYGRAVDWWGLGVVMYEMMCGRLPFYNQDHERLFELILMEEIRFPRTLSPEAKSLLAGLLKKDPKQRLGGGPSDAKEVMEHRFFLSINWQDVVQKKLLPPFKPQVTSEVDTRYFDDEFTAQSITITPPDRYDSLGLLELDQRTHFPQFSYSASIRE

SMILES: COc1ccc2c(c1)c1ccnc3c4ccnc(OC)c4c(=O)n2c13 [MW01-E14, 5,17-dimethoxy-1,11,16-triazapentacyclo[10.7.1.0^2,^7.0^8,^20.0^13,^18]icosa-2(7),3,5,8(20),9,11,13(18),14,16-nonaen-19-one]
- inhibition at 10 µM (PRKCN (PKD3); [2]): -1%
- inhibition at 10 µM [1, 3]: 80%
- inhibition at 10 µM (BTK; [4]): 29%
- inhibition at 10 µM (PIP5K1B; [5]): 26%
- inhibition at 10 µM (PI4K2B (PI4K2 beta); [6]): 21%
- inhibition at 10 µM (ALK; [7]): 15%
- inhibition at 10 µM (PI4K2A (PI4K2 alpha); [8]): 35%
- inhibition at 10 µM (MINK1; [9]): 12%
- inhibition at 10 µM (PI4KB (PI4K beta); [10]): 36%
- inhibition at 10 µM (AKT2 (PKB beta); [11]): 14%
- inhibition at 10 µM (FRAP1 (mTOR); [12]): 26%
- inhibition at 10 µM (DNA-PK; [13]): 43%
- inhibition at 10 µM (PIP5K1A; [14]): 11%
- inhibition at 10 µM (EGFR (ErbB1); [15]): 9%
- inhibition at 10 µM (DYRK1B; [16]): 23%
- inhibition at 10 µM (IRAK1; [17]): 9%

SMILES: O=c1c2cnccc2c2nccc3c4cc(O)ccc4n1c32 [MW01-E18, 5-hydroxy-1,11,16-triazapentacyclo[10.7.1.0^2,^7.0^8,^20.0^13,^18]icosa-2(7),3,5,8(20),9,11,13(18),14,16-nonaen-19-one]
- inhibition at 10 µM (PRKCN (PKD3); [2]): 52%
- inhibition at 10 µM [1, 3]: 90%
- inhibition at 10 µM (BTK; [4]): 30%
- inhibition at 10 µM (PIP5K1B; [5]): -3%
- inhibition at 10 µM (PI4K2B (PI4K2 beta); [6]): 24%
- inhibition at 10 µM (ALK; [7]): 35%
- inhibition at 10 µM (PI4K2A (PI4K2 alpha); [8]): 30%
- inhibition at 10 µM (MINK1; [9]): 85%
- inhibition at 10 µM (PI4KB (PI4K beta); [10]): 81%
- inhibition at 10 µM (AKT2 (PKB beta); [11]): 3%
- inhibition at 10 µM (FRAP1 (mTOR); [12]): 43%
- inhibition at 10 µM (DNA-PK; [13]): 94%
- inhibition at 10 µM (PIP5K1A; [14]): 28%
- inhibition at 10 µM (EGFR (ErbB1); [15]): 14%
- inhibition at 10 µM (DYRK1B; [16]): 68%
- inhibition at 10 µM (IRAK1; [17]): 69%

SMILES: COc1ccc2cc3c(N)nn(C(=O)c4cccc(N(C)C)c4)c3nc2c1 [MW05, (3-Amino-7-methoxypyrazolo[3,4-b]quinolin-1-yl)-[3-(dimethylamino)phenyl]methanone]
- inhibition at 1 µM (PRKCN (PKD3); [18]): 17%
- inhibition at 10 µM (PRKCN (PKD3); [19]): 15%
- inhibition at 1 µM [1, 18]: 14%
- inhibition at 10 µM [1, 19]: 52%
- inhibition at 1 µM (BTK; [18]): 5%
- inhibition at 10 µM (BTK; [19]): 8%
- inhibition at 1 µM (PIP5K1B; [18]): -13%
- inhibition at 10 µM (PIP5K1B; [19]): 7%
- inhibition at 1 µM (PI4K2B (PI4K2 beta); [18]): 9%
- inhibition at 10 µM (PI4K2B (PI4K2 beta); [19]): 0%
- inhibition at 1 µM (ALK; [18]): 0%
- inhibition at 10 µM (ALK; [19]): -2%
- inhibition at 1 µM (PI4K2A (PI4K2 alpha); [18]): -7%
- inhibition at 10 µM (PI4K2A (PI4K2 alpha); [19]): -1%
- inhibition at 1 µM (MINK1; [18]): 20%
- inhibition at 10 µM (MINK1; [19]): 9%
- inhibition at 1 µM (PI4KB (PI4K beta); [18]): -2%
- inhibition at 10 µM (PI4KB (PI4K beta); [19]): 43%
- inhibition at 1 µM (AKT2 (PKB beta); [18]): 10%
- inhibition at 10 µM (AKT2 (PKB beta); [19]): -8%
- inhibition at 1 µM (FRAP1 (mTOR); [18]): 31%
- inhibition at 10 µM (FRAP1 (mTOR); [19]): 81%
- inhibition at 1 µM (DNA-PK; [18]): 30%
- inhibition at 10 µM (DNA-PK; [19]): 61%
- IC50 (DNA-PK; in vitro kinase panel, sub-2000 nM criterion): ≥ 2000 nM
- inhibition at 1 µM (PIP5K1A; [18]): -6%
- inhibition at 10 µM (PIP5K1A; [19]): 5%
- inhibition at 1 µM (EGFR (ErbB1); [18]): 13%
- inhibition at 10 µM (EGFR (ErbB1); [19]): 5%
- inhibition at 1 µM (DYRK1B; [18]): 28%
- inhibition at 10 µM (DYRK1B; [19]): 69%
- inhibition at 1 µM (IRAK1; [18]): 17%
- inhibition at 10 µM (IRAK1; [19]): -7%

SMILES: COc1ccc2nc3c(cc2c1)c(N)nn3C(=O)c1cccc(N(C)C)c1 [MW05-E2, 1-[3-(dimethylamino)benzoyl]-6-methoxy-1H-pyrazolo[3,4-b]quinolin-3-amine]
- inhibition at 10 µM (PRKCN (PKD3); [2]): 7%
- inhibition at 10 µM [1, 3]: 26%
- inhibition at 10 µM (BTK; [4]): 7%
- inhibition at 10 µM (PIP5K1B; [5]): -12%
- inhibition at 10 µM (PI4K2B (PI4K2 beta); [6]): 8%
- inhibition at 10 µM (ALK; [7]): 24%
- inhibition at 10 µM (PI4K2A (PI4K2 alpha); [8]): -4%
- inhibition at 10 µM (MINK1; [9]): 29%
- inhibition at 10 µM (PI4KB (PI4K beta); [10]): 9%
- inhibition at 10 µM (AKT2 (PKB beta); [11]): 8%
- inhibition at 10 µM (FRAP1 (mTOR); [12]): 5%
- inhibition at 10 µM (DNA-PK; [13]): 16%
- inhibition at 10 µM (PIP5K1A; [14]): -9%
- inhibition at 10 µM (EGFR (ErbB1); [15]): 33%
- inhibition at 10 µM (DYRK1B; [16]): 84%
- inhibition at 10 µM (IRAK1; [17]): 2%
